Laboratory results from patent US7005437B2, “Substituted aryl and heteroaryl derivatives, the preparation thereof and the use therof as pharmaceutical compositions” (Boehringer Ingelheim Pharma KG, priority 2001, dated 2006).
Structures can show the parent of a compound that is named as a salt.

Target: T1, human factor Xa (Homo sapiens, UniProt P00742)
T1 construct: released from the colourless chromogenic substrate by human factor Xa; purchased Roche
Test: Factor Xa inhibition, enzyme-kinetic measurement with chromogenic substrate
Format: biochemical
Settings: chromogenic substrate Chromozym X, pNA release at 405 nm, pH 8.0, 37° C.
Method: The compounds of Examples 1 to 45 of the present application were investigated for their effect on the inhibition of factor Xa as follows: Method: Enzyme-kinetic measurement with chromogenic substrate. The quantity of p-nitroaniline (pNA) released from the colourless chromogenic substrate by human factor Xa is determined photometrically at 405 nm. It is proportional to the activity of the enzyme used. The inhibition of the enzyme activity by the test substance (in relation to the solvent control) is determined at various concentrations of test substance and from this the IC50 is calculated, as the concentration which inhibits the factor Xa used by 50%.
Tris(hydroxymethyl)-aminomethane buffer (100 mMol) of and sodium chloride (150 mMol), pH 8.0
Factor Xa (Roche), spec. activity: 10 U/0.5 ml, final concentration: 0.175 U/ml for each reaction mixture
Substrate Chromozym X (Roche), final concentration: 200 μMol/l for each reaction mixture
10 μl of a 23.5-times concentrated starting solution of the test substance or solvent (control), 175 μl of tris(hydroxymethyl)-aminomethane buffer and 25 μl of a 1.65 U/ml Factor Xa working solution are incubated for 10 minutes at 37° C. After the addition of 25 μl of Chromozym X working solution ([…]) the sample is measured in a photometer (SpectraMax 250) at 405 nm for 150 seconds at 37° C.
1. […]

T1 sequence (P00742 235-488 limits assumed): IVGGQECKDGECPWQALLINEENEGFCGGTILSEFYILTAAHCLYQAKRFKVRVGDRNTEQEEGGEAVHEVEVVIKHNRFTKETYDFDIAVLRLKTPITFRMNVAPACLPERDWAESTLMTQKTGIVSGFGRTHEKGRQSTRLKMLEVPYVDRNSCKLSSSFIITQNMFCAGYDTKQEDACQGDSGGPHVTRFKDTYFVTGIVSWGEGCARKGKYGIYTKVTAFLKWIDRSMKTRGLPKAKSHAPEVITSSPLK
T1 sequence (P00742 41-179 partner limits assumed): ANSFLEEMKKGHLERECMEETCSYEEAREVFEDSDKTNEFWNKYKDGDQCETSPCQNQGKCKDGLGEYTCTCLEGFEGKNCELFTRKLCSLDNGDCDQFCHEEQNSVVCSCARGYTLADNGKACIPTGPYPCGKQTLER

For `Cc1cc(C#CCN(Cc2ccccc2)c2cccc(C(=N)N)c2)ccc1C(=O)N1CC=CC1` [Example 37, 3-{N-benzyl-3-[3-methyl-4-(2,5-dihydropyrrol-1-yl-carbonyl)-phenyl]-propargylamino}-benzamidine-hydrochloride], the IC50 was 4 nM.
